From patent publication US9572878B2, “Method of combination therapy using an EGFR antagonist and anti-c-Met antibody” (SAMSUNG ELECTRONICS CO., LTD., priority 2013, dated 2017)
Values belong to the molecule of their own block, whether it stands above or below them.

How the values were obtained:
HCC827 ER #15 cell line = assay: Confirmation of erlotinib resistance, cell number by CCK-8; assay type: cell-based, human; details: HCC827 ER #15 vs HCC827; various concentrations, 120 hours; FIG. 3
Description: HCC827 human lung cancer cell line was in vitro treated with an EGFR antagonist erlotinib for a given period to establish HCC827 ER(HCC827 erlotinib-resistant) cell line. More specifically, HCC827 human lung cancer cell line (CRL-2868, ATCC) was in vitro treated with an EGFR antagonist erlotinib (Roche) in an amount of 5 nM to 10 nM for 5 months or more, to construct Erlotinib resistant cell (ER cell) clone.

HCC827 ER #15 = assay: Combined use of erlotinib and antibodies in erlotinib resistant cell line, cell number by CCK-8; assay type: cell-based, human
Description: In a 96 well plate, diluted HCC827 ER #15 was seeded at 5000 cells/well in a […] medium (GIBCO) containing 10% FBS, and then, incubated at 37° C. overnight. On the next day, the medium was replaced with a RPMI1640 medium containing 1% FBS (GIBCO), and then, the antibody was serially diluted from 100 ug/ml, and the cells were treated therewith at 100 ul. For co-administration, the cells were treated with 10 nM or 100 nM erlotinib, together with the antibody. After 5 days, the number of cells was measured using a CCK-8 reagent (Dojindo laboratory).

c-Met = c-Met (Homo sapiens, UniProt P08581); assay: Specificity of expressed scFv of huAbF46; assay type: binding; details: expressed scFv product
Description: For use in constructing an scFv of the huAbF46 antibody from the heavy and light chain variable regions of the huAbF46 antibody, a gene was designed to have the structure of “VH-linker-VL” for each of the heavy and the light chain variable region, with the linker having the amino acid sequence “[…]” (SEQ ID NO: 54). A polynucleotide sequence (SEQ ID NO: 55) encoding the designed scFv of huAbF46 was synthesized in Bioneer and an expression vector for the polynucleotide had the nucleotide sequence of SEQ ID NO: 56.

Chain of c-Met (P08581 25-1390): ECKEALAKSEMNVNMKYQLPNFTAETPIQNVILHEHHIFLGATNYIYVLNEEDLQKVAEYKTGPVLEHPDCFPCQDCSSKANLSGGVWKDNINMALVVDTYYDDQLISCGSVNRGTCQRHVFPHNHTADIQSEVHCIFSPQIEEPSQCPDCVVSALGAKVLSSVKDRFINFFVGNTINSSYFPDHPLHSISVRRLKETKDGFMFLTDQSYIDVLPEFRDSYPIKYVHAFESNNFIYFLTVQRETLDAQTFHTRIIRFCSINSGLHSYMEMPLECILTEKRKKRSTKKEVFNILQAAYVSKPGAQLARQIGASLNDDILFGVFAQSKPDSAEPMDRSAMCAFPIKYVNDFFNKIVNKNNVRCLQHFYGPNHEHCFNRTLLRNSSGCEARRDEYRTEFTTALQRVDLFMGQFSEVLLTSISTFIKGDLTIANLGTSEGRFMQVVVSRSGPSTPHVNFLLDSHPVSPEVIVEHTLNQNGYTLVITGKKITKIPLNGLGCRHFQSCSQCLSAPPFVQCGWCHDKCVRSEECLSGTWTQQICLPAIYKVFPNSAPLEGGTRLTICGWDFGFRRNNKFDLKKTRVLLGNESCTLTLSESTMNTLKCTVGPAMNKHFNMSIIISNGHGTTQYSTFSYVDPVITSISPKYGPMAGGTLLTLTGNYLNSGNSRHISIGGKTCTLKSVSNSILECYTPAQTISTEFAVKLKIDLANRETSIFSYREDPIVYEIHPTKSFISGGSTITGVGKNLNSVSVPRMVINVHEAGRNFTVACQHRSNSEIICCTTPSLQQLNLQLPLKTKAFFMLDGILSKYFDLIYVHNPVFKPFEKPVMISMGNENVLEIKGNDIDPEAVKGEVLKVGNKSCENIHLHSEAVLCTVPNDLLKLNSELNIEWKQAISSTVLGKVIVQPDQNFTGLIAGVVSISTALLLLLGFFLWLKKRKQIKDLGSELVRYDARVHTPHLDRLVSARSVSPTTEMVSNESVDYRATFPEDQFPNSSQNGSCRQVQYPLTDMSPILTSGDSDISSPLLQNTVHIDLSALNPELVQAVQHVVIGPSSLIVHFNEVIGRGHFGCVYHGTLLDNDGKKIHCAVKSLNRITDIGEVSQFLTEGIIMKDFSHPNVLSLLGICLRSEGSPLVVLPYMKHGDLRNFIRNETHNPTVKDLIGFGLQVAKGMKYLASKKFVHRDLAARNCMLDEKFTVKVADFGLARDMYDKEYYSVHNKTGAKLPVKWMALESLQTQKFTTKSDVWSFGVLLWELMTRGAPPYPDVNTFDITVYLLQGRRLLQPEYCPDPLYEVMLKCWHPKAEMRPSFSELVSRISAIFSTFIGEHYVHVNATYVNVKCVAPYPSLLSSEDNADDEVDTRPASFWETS

Molecule: C#Cc1cccc(Nc2ncnc3cc(OCCOC)c(OCCOC)cc23)c1 [erlotinib]
resistance of cell line to EGFR antagonist (HCC827 ER #15 cell line): resistance occurred

Molecule: Rituximab [reference compound]
synergistic effect of co-administration with erlotinib (HCC827 ER #15; HCC827 ER #15, antibody dilution series with 10 nM or 100 nM erlotinib, 5 days, FIGS. 4a-4d): synergistic effect was not observed | synergistic effects on cell viability, co-administration with erlotinib at fixed concentrations (HCC827 ER #15; HCC827 ER#15, antibodies 0.14 μg/ml, erlotinib 10 nM, FIG. 5): synergistic effects were not observed

specificity to c-Met (c-Met): exhibit specificity to c-Met
B1: scFv of huAbF46: VH-linker-VL single-chain Fv of the huAbF46 antibody (polynucleotide SEQ ID NO: 55) (protein)
scFv: EVQLVESGGGLVQPGGSLRLSCAASGFTFTDYYMSWVRQAPGKGLEWLGFIRNKANGYTTEYSASVKGRFTISRDNSKNTLYLQMNSLRAEDTAVYYCARDNWFAYWGQGTLVTVSSGLGGLGGGGSGGGGSGGSSGVGSDIQMTQSPSSLSASVGDRVTITCKSSQSLLASGNQNNYLAWHQQKPGKAPKMLIIWASTRVSGVPSRFSGSGSGTDFTLTISSLQPEDFATYYCQQSYSAPLTFGQGTKVEIKR
